Measurements reported in patent US8283348B2, “1-benzyl-3-hydroxymethylindazole derivatives and use thereof in the treatment of diseases based on the expression of MCP-1, CX3CR1 and p40” (Aziende Chimiche Riunite Angelini Francesco A.C.R.A.F. …, priority 2008, dated 2012).

Legend:
human MCP-1 = test: Gene expression of MCP-1 in LPS-stimulated MonoMac6 cells (real-time RT-PCR); assay type: cell-based; details: MONO-MAC-6, MCP-1 mRNA, 1 h preincubation, LPS 100 ng/ml 4 h; for inhibition at 150 µM: MonoMac6, compound 150 μM (maximum soluble concentration); for inhibition at 300 µM: MonoMac6, compound 300 μM (maximum soluble concentration); for inhibition at 75 µM: MonoMac6, compound 75 μM (maximum soluble concentration)
Description: (§1) The capacity of the compounds to inhibit the expression of MCP-1 by lipopolysaccharide (LPS)-stimulated MonoMac6 cells was evaluated. The cells were placed in 96-well plates at a concentration of 50 000 cells/well. The compounds were tested at the maximum soluble concentration given in Table 1 (in the range 30-300 μM) and incubated for 1 hour. The cells were then stimulated with LPS (100 ng/ml) for 4 hours.
(§2) The total RNA was extracted from the cell pellet using the RNeasy mini kit (Qiagen), reverse-transcribed with the TaqMan Reverse transcription reagents synthesis kit (Applied Biosystems) and the cDNA obtained was used for the real-time PCR reaction. The amplification was obtained in 96-well plates using the ABI Prism 7000 sequence detection system (Applied Biosystems), by applying the following temperature profile: 50° C. for 2 minutes, 95° C. for 10 minutes and 45 cycles at 95° C. for 15 seconds and 60° C. for 1 minute. For the amplification, a set of primers and probe specific for human MCP-1 was used (Applied Biosystems, RefSeq NM_002982.3). A set of primers and probe for β-actin was used in separate wells as an internal control of the samples for the purposes of normalization. Once the reaction had taken place, the fluorescence data were analysed using the ABI Prism 7000 SDS software, by calculating the threshold cycle (Ct) for each sample and subsequently performing a relative quantification via the ΔΔCt method.
The results obtained, expressed as a percentage of inhibition, are collated in Table 1 below.

MCP-1 = test: Production of MCP-1 protein by LPS-stimulated MonoMac6 cells (ELISA); assay type: cell-based; details: Homo sapiens, MONO-MAC-6, MCP-1 protein in supernatant (ELISA), LPS 100 ng/ml 20 h; for inhibition at 150 µM: MonoMac6, compound 150 μM (maximum soluble concentration); for inhibition at 300 µM: MonoMac6, compound 300 μM (maximum soluble concentration); for inhibition at 30 µM: MonoMac6, compound 30 μM (maximum soluble concentration); for inhibition at 75 µM: MonoMac6, compound 75 μM (maximum soluble concentration)
Description: as §1, with “expression of the protein MCP-1 by” for “expression of MCP-1 by”, “in Table 2 (in the” for “in Table 1 (in the”, “ng/ml) for 20 hours.” for “ng/ml) for 4 hours.”
The amount of MCP-1 produced was measured in the supernatants, suitably diluted with buffer, by means of an immunoenzymatic test (ELISA) using a commercial kit (ELISA MCP-1/JE, R&D Systems).
The results obtained, expressed as a percentage of inhibition, are collated in Table 2 below.

human CX3CR1 = test: Gene expression of CX3CR1 in LPS-stimulated MonoMac6 cells (real-time RT-PCR); assay type: cell-based; details: MONO-MAC-6, CX3CR1 mRNA, LPS 100 ng/ml 20 h; for inhibition at 150 µM: MonoMac6, compound 150 μM (maximum soluble concentration); for inhibition at 300 µM: MonoMac6, compound 300 μM (maximum soluble concentration); for inhibition at 75 µM: MonoMac6, compound 75 μM (maximum soluble concentration)
Description: as §2, with “The capacity of the compounds to inhibit the expression of CX3CR1 by lipopolysaccharide (LPS)-stimulated MonoMac6 cells was evaluated. The cells were placed in 96-well plates at a concentration of 50 000 cells/well. The compounds were tested at the maximum soluble concentration given in Table 3 (in the range 30-300 μM) and incubated for 1 hour. The cells were then stimulated with LPS (100 ng/ml) for 20 hours. The total” for “The total”, “for human CX3CR1 was used” for “for human MCP-1 was used”, “Biosystems, RefSeq NM_001337.3). A set” for “Biosystems, RefSeq NM_002982.3). A set”, “ΔΔCt method. The results obtained, expressed as a percentage of inhibition, are collated in Table 3 below.” for “ΔΔCt method.”

human p40 = test: Gene expression of p40 in LPS-stimulated MonoMac6 cells (real-time RT-PCR); assay type: cell-based; details: MONO-MAC-6, p40 mRNA, LPS 100 ng/ml 4 h; for inhibition at 150 µM: MonoMac6, compound 150 μM (maximum soluble concentration); for inhibition at 75 µM: MonoMac6, compound 75 μM (maximum soluble concentration)
Description: as §1, with “of p40” for “of MCP-1”, “Table 4” for “Table 1”
as §2, with “p40” for “MCP-1”, “NM_002187.2).” for “NM_002982.3).”
The results obtained, expressed as a percentage of inhibition, are collated in Table 4 below.

[1] = MonoMac6, compound 30 μM (maximum soluble concentration)

Compound `CC(C)(OCc1nn(Cc2ccccc2)c2ccccc12)C(=O)NN` [Compound 11, 2-[(1-benzyl-1H-indazol-3-yl)methoxy]-2-methylpropanohydrazide] has an inhibition at 150 µM (human MCP-1) of 68%, an inhibition at 150 µM (MCP-1) of 79% and an inhibition at 150 µM (human CX3CR1) of 90%. The inhibition at 150 µM (human p40) was 44% and the melting point was 92 to 93 °C.

Work on `CC(C)(OCc1nn(Cc2ccccc2)c2ccccc12)C(N)=O` [Compound 9, 2-[(1-benzyl-1H-indazol-3-yl)methoxy]-2-methylpropanamide] yielded an inhibition at 300 µM (human MCP-1) of 99%, an inhibition at 300 µM (MCP-1) of 98% and an inhibition at 300 µM (human CX3CR1) of 99%. For the same compound, the inhibition at 300 µM (human p40; MonoMac6, compound 300 μM (maximum soluble concentration)) was 96% and the melting point was 111 to 112 °C.

For `CC(C)(OCc1nn(Cc2ccccc2)c2ccccc12)C(=O)Nc1ccccn1` [Compound 14, 2-[(1-benzyl-1H-indazol-3-yl)methoxy]-2-methyl-N-pyrid-2-ylpropanamide], the inhibition at 30 µM (human MCP-1; [1]) was 49%, the inhibition at 30 µM (MCP-1) was 70% and the inhibition at 30 µM (human CX3CR1; [1]) was 44%. The inhibition at 30 µM (human p40; [1]) was 27% and the melting point was 121 to 122 °C.

`CN1CCN(C(=O)C(C)(C)OCc2nn(Cc3ccccc3)c3ccccc23)CC1` [Compound 15, 1-benzyl-3-{[1,1-dimethyl-2-(4-methylpiperazin-1-yl)-2-oxoethoxy]methyl}-1H-indazole] gave an inhibition at 75 µM (human MCP-1) of 40%, an inhibition at 75 µM (MCP-1) of 59% and an inhibition at 75 µM (human CX3CR1) of 89%. The inhibition at 75 µM (human p40) was 33% and the melting point was 97 to 98 °C.

Work on `CC(C)(OCc1nn(Cc2ccccc2)c2ccccc12)C(=O)NNc1ccccc1` [Compound 27, 2-[(1-benzyl-1H-indazol-3-yl)methoxy]-2-methyl-N′-phenylpropanohydrazide] yielded an inhibition at 30 µM (MCP-1) of 82% and a melting point of 124 to 125 °C.

`CC(C)(OCc1nn(Cc2ccccc2)c2ccccc12)C(=O)NO` [Compound 10, 2-[(1-benzyl-1H-indazol-3-yl)methoxy]-N-hydroxy-2-methylpropanamide] gave an inhibition at 150 µM (human MCP-1) of 61%, an inhibition at 150 µM (MCP-1) of 91% and an inhibition at 150 µM (human CX3CR1) of 95%. For the same compound, the inhibition at 150 µM (human p40) was 54% and the melting point was 115 to 116 °C.

`CN(C)CCNC(=O)C(C)(C)OCc1nn(Cc2ccccc2)c2ccccc12.Cl` [Compound 13, 2-[(1-benzyl-1H-indazol-3-yl)methoxy]-N-[2-(dimethylamino)ethyl]-2-methylpropanamide hydrochloride] showed an inhibition at 75 µM (human MCP-1) of 72%, an inhibition at 75 µM (MCP-1) of 74% and an inhibition at 75 µM (human CX3CR1) of 100%. The inhibition at 75 µM (human p40) was 59% and the melting point was 136 to 137 °C.

With `CC(C)(OCc1nn(Cc2ccccc2)c2ccccc12)C(=O)NNC(N)=O` [Compound 12, 2-{2-[(1-benzyl-1H-indazol-3-yl)methoxy]-2-methylpropanoyl}hydrazinecarboxamide] the inhibition at 300 µM (human MCP-1) was 20%, the inhibition at 300 µM (MCP-1) was 48% and the inhibition at 300 µM (human CX3CR1) was 83%.
